The record followed here is patent US20230068020A1, “MACROLIDE COMPOUND AND ITS USE OF TREATMENT CHRONIC RESPIRATORY DISEASE” (priority 2020, published 2023).

Each structure is given as a SMILES string. In brackets after ≈: the same amount, converted by molar mass. Some results are limits rather than exact numbers.

Series [1] relates to Acinetobacter baumanii ATCC 17978. As to the kind of experiment: Antibacterial activity, agar dilution MIC. The series is classed as cell-based. To be noted: Acinetobacter baumannii, ATCC17978, 20-24 hrs incubation, read-out: minimum inhibitory concentration MIC. As for the experimental part:
(§1) The antibacterial activity of Erythromycin and compounds of examples were evaluated by the agar dilution method, following the guidelines of the CLSI. […] Briefly, bacteria were grown overnight in adapted media (MHIIA with 5% of sheep blood for Streptococcus pneumoniae and Haemophilus influenzae, and MHIIA for the other bacteria strains) at 35° C., 5% CO2.
(§2) Cultures were centrifuged at 3000×g for 15 min. Pellets were diluted with 5 mls cold PBS and the OD600nm was adjusted to 10^8 CFU.mL^−1 with a spectrometer. Bacteria were then added to 96-well test plates. Compounds were diluted in DMSO in a 2 fold steps from 20 mg/ml in DMSO in 96 well plated and transferred to the test plate. During the incubation, the plate was maintained at 35° C., 5% CO2.
(§3) The MICs for Erythromycin and compounds of examples were determined after 20-24 hrs incubation.
Background: Agar dilution tests growth on a series of plates holding different concentrations.

Series [2] concerns Acinetobacter baumannii ATCC-BAA-1605. As to the kind of experiment: Antibacterial activity, agar dilution MIC. To be noted: ATCCBAA1605, 20-24 hrs incubation, read-out: minimum inhibitory concentration MIC. Format: cell-based. The procedure: as §1, §2, §3
In series [3] the test system is Enterococcus faecalis ATCC 29212. Kind of series: Antibacterial activity, agar dilution MIC. Format: cell-based. Conditions: ATCC29212, 20-24 hrs incubation, read-out: minimum inhibitory concentration MIC. The procedure: as §1, §2, §3
Series [4] deals with Haemophilus influenzae ATCC 49247. As to the kind of experiment: Antibacterial activity, agar dilution MIC. The series is classed as cell-based. Conditions: ATCC49247, 20-24 hrs incubation, read-out: minimum inhibitory concentration MIC. As for the experimental part: as §1, §2, §3
Series [5] relates to Moraxella catarrhalis ATCC 43617. As to the kind of experiment: Antibacterial activity, agar dilution MIC. Format: cell-based. Conditions: ATCC43617, 20-24 hrs incubation, read-out: minimum inhibitory concentration MIC. As for the experimental part:
as §1, §2, §3

Series [6] deals with Staphylococcus aureus ATCC 29213. Kind of series: Antibacterial activity, agar dilution MIC. Conditions: ATCC29213, 20-24 hrs incubation, read-out: minimum inhibitory concentration MIC. Format: cell-based. The procedure: as §1, §2, §3
Series [7] has as its system Staphylococcus aureus NRS 384. Kind of series: Antibacterial activity, agar dilution MIC. The series is classed as cell-based. To be noted: NRS384, 20-24 hrs incubation, read-out: minimum inhibitory concentration MIC. The procedure: as §1, §2, §3
For series [8], the system named is Streptococcus pneumoniae ATCC 49619. Kind of series: Antibacterial activity, agar dilution MIC. The series is classed as cell-based. To be noted: ATCC49619, 20-24 hrs incubation, read-out: minimum inhibitory concentration MIC. The procedure:
as §1, §2, §3

For series [9], the system named is Streptococcus pneumoniae ATCC 6301. Kind of series: Antibacterial activity, agar dilution MIC. To be noted: ATCC6301, 20-24 hrs incubation, read-out: minimum inhibitory concentration MIC. The series is classed as cell-based. As for the experimental part: as §1, §2, §3
For series [10], the system named is Streptococcus pyogenes ATCC BAA-572. As to the kind of experiment: Antibacterial activity, agar dilution MIC. The series is classed as cell-based. Conditions: ATCCBAA572, 20-24 hrs incubation, read-out: minimum inhibitory concentration MIC. As for the experimental part:
as §1, §2, §3

The subject of series [11] is IL-8 expression in BEAS-2B cell. Kind of series: LPS induced IL-8 release by BEAS-2B (ELISA). Conditions: in words; BEAS-2B. The series is classed as cell-based. The procedure: The inhibitory effect of compounds of Examples on the IL-8 expression in BEAS-2B cell was tested using the following method. BEAS-2B was purchased from ATCC (American Type Culture Collection, Manassas, Va.). Cells were maintained in growth medium (LHC-9) and cultured at 37° C. under 5% CO2. Compounds were dissolved in 0.1% DMSO. Erythromycin was used as a positive control.
For the assessment of the effect of compounds of Examples on IL-8 expression inhibition in BEAS-2B cell line, cells were plated in 24 well plate at a density of 100,000/mL, in a final volume of 1 mL of assay medium. Cells were incubated at 37° C., 5% CO2 for 1 day. After the incubation, compounds were added at day 2 and LPS was added at day 3. A compound source plate was prepared by triplicate five-point 10-fold or 2-fold serial dilutions in DMSO, beginning at 1 mM (final top concentration of compounds of Examples in the assay was 100 μM and the DMSO was 0.1%). The positive control consisted of cells treated with 100 μM erythromycin and negative control was consisted of 0.1% DMSO treated cells. LPS stock solution at 5 mg/mL was made by dissolving 10 mg of LPS powder into 2 mL of ddH2O and aliquoted to 100 μL per vial. Final concentration of LPS in the assay was […] by making 125-fold dilution of stock solution with medium.
Specific immunoreactivity for IL-8 in culture supernatants were measured by a commercially available ELISA kits (R&D Systems, Inc., Minneapolis, Minn.). Each sample was assayed in duplicates as recommended by the manufacture. The concentration of compounds of Examples inhibiting IL-8 production on BEAS-2B by 10% was estimated from a 4-parametric of the normalized dose response curve. (IC10)
(An ELISA detects its analyte on a solid surface through an enzyme-linked reagent.)

For series [12] the following is noted: male, Sprague-Dawley, rat, in vivo, po, 100 mg/kg.
Description: (§4) In another study, a single intravenous dose of two compounds was given to rats (N=3) at 30 mg/ml dosage following administration through the lateral tail vein in order to obtain the absolute oral bioavailability and clearance parameters. Compounds (10 mg/mL) was dissolved in 30% DMSO for IV injection and suspended in 0.5% CMC-Na for IG respectively.
The nature of the next series: in vivo. To be noted: Sprague-Dawley, rat.

Description for in vivo: as §4

For the compound `CC[C@H]1OC(=O)[C@H](C)[C@@H](O[C@H]2C[C@@](C)(OC)[C@@H](O)[C@H](C)O2)[C@H](C)[C@@H](O[C@@H]2O[C@H](C)C[C@H](N(C)C)[C@H]2O)[C@](C)(O)C[C@@H](C)C(=O)[C@H](C)[C@@H](O)[C@]1(C)O` [Erythromycin, reference compound], the MIC in [1] was 64 µg/mL (≈ 87.2 µM); in [2], 16 µg/mL (≈ 21.8 µM); in series [3] it was 1 µg/mL (≈ 1.36 µM); in series [4], 16 µg/mL (≈ 21.8 µM); in [5] it was 2 µg/mL (≈ 2.73 µM); in [6] it was 0.5 µg/mL (≈ 0.681 µM). The MIC was 64 µg/mL (≈ 87.2 µM) in series [7], below 0.125 µg/mL in series [8], below 0.125 µg/mL in series [9] and below 0.125 µg/mL in series [10]. The “LPS-induced IL-8 release” value in series [11] is “significantly inhibited”. The F in [12] is listed as 21.8%. Besides, the clearance in the series “in vivo” (iv) was determined as 50.2 mL/min/kg. The AUC(0-inf) in “in vivo” (male, po, 100 mg/kg) is 7250 ng·h/mL. The same compound showed an area under the curve AUC(0-t) in “in vivo” (male, po, 100 mg/kg) of 7240 ng·h/mL. The compound also showed a Cmax in “in vivo” (male, po, 100 mg/kg) of 2530 ng/mL. Besides, the Tmax in the series “in vivo” (male, po, 100 mg/kg) is 2 h. In “in vivo” (male, po, 100 mg/kg), this compound showed a half-life of 0.93 h.

As usually defined, the clearance is the volume of plasma or blood freed of the substance per unit of time. A word on the AUC(0-inf): it is total exposure, with the tail of the curve extrapolated. For orientation: AUC(0-t) means exposure summed from dosing to a finite time, without extrapolation to infinity. By Cmax is commonly meant the highest concentration seen after dosing. As a reminder, the Tmax is the time at which the peak concentration occurs. As a reminder, the half-life is the time in which the quantity being followed falls by half. Read a low half-life as fast loss.
